Where a SMILES comes first, the peptide text is derived from it. [ ]: non-standard residue; d: D form.
Experiments:
cut-wound model, SD rats = assay: Evaluation of skin tissue in cut wound healing (HE staining); type: in vivo, rat; details: 10 μg dropwise once a day until suture removal, skin collected Day 6
Experimental: A cut-wound model was produced using 7-week old male SD rats (Crl:CD), and the change in the skin tissue caused by administering the polypeptides of the present invention was evaluated. A cut wound of 30 to 36 mm was made on the back of the rats using a safety razor, and sutured at 3 points equally spaced (Day 0). Onto the suture site, 50 μL of each of the test substances which were respectively adjusted to the concentration of 200 μg/mL was added dropwise (the added amount was 10 μg). Each test substance was administered dropwise once a day till the day when the sutures were removed. On Day 3 after the suturing, the sutures were removed; and, on Day 6, the skin tissue in the cut wound site was collected to evaluate the skin by HE staining

[1] = tested on: Pseudomonas aeruginosa (clinical strain 8); assay: MIC measurement, broth microdilution; type: cell-based; details: 37° C. for 20 hours; tested twice, first/second value where not matched
Experimental: (CLSI), but, in this Example, its measurement was carried out by a broth microdilution method in accordance with “M100-S17/M7-A7” (Performance Standards for Antimicrobial Susceptibility Testing; Seventeenth Informational Supplement, Vol. 27 No. 1) published by CLSI on January, 2007. That is, sensitivity test of agents was carried out using a microtiter plate or test tubes.
Each peptide was prepared to an optional concentration, and the solutions were serially diluted from the concentration. The polypeptide at each concentration stage was added to a microplate or test tubes, and the bacterial suspension was added thereto.

CC[C@H](C)[C@H](NC(=O)[C@H](CC(C)C)NC(=O)[C@H](CCCCN)NC(=O)[C@@H](N)CC(C)C)C(=O)N[C@@H](Cc1ccccc1)C(=O)N[C@@H](CC(C)C)C(=O)N[C@@H](Cc1c[nH]cn1)C(=O)N[C@@H](CCCNC(=N)N)C(=O)N[C@@H](CC(C)C)C(=O)N[C@@H](CCCCN)C(=O)N[C@@H](CCCNC(=N)N)C(=O)N[C@@H](CCSC)C(=O)N[C@@H](CCCNC(=N)N)C(=O)N[C@@H](CCCCN)C(=O)N[C@@H](CCCNC(=N)N)C(=O)N[C@@H](CC(C)C)C(=O)N[C@H](CCCCN)C(=O)N[C@@H](CCCNC(=N)N)C(=O)N[C@@H](CCCCN)C(N)=O [SR-08] (H-LKLIFLHRLKRMRKRL[dK]RK-NH2; N-terminus assumed)
Granulation and collagen at cut wound site (HE staining) (cut-wound model, SD rats): increased compared to Saline | Thickening in stratum spinosum epidermidis (HE staining) (cut-wound model, SD rats): less than the saline group | MIC, Pseudomonas aeruginosa (clinical strain 8) [1]: 16/32
